# Assays:
# caspase-9 = test: Caspase-9 activity (Ac-LEHD-AFC cleavage) in SH-SY5Y cells; format: cell-based, human; details: 1 mM, 96 h
# Procedure: (§1) Measurement of the activities of the various caspases is based on the ability of the caspases to cleave specific fluorescent substrates: Ac-DEVD-AFC for caspase-3, Ac-IETD-AFC for caspase-8, or Ac-LEHD-AFC for caspase-9. SH-SY5Y neuronal cells were incubated in 48-well plates with either furosemide pyridinium (1 mM) for 96 h or with MPP+ (1 mM) for 6 h, then 24 h of incubation with no MPP+. After incubation, the cells were trypsinized, then rinsed with PBS and counted, then harvested in 100 μl of buffer containing 30 mM HEPES, 0.3 mM EDTA, 100 mM NaCl, 0.15% Triton X-100, and 10 mM DTT. The cell extract was then incubated for 1 hour at 37° C. with the specific substrate (100 μM) in a 96-well plate. Fluorescence was measured at λex400 nm and λem505 nm in a fluorescence detection plate reader (TECAN Infinite M1000) (Yue et al., supra). The results were expressed as percentages relative to the measured activity of cells cultured under the same conditions and not subjected to any treatment.
# [1] = test system: α-synuclein phosphorylated at serine 129; test: Immunohistochemistry of Ser129-phosphorylated alpha-synuclein in exposed mice; format: in vivo, mouse; details: 20 mg/kg/day oral 7 days, 30 days after end of exposure
# Procedure: Swiss mice were divided into two groups of five animals (experimental and control). The experiments were performed independently two times. The mice of the experimental group were exposed to furosemide pyridinium for 7 days at a daily dose of 20 mg/kg. The furosemide pyridinium was administered orally in the drinking water. The mice were sacrificed 30 days after the end of the furosemide pyridinium treatment.
# For this, the mice were anesthetized with pentobarbital (50 mg/Kg), then an intracardiac infusion of NaCl (0.9%) was administered, followed by fixation by an infusion of 4% paraformaldehyde in 0.1M phosphate buffer, pH 7.2. The brain was removed, placed in NaCl (0.9%) at 4° C., and frozen in Tissue Tek immersed in a cold isopentane bath. Coronal sections of eight microns were obtained using a cryostat and were processed for immunohistochemistry (labeling the tyrosine hydroxylase and the Ser129-phosphorylated alpha-synuclein).
# [2] = test system: mitochondria isolated from rat cerebral cortex; test: Respiratory control (oxygen consumption, malate/pyruvate) of isolated cerebral cortex mitochondria; format: biochemical; details: increasing concentration
# Procedure: The animal was then decapitated in order to collect from the brain either the cortex or the striatum, which were quickly placed in a Potter Elvejhem® containing 6 ml of extraction buffer at 4° C. (250 mM sucrose, 40 mM KCl, 2 mM EGTA, lmg/ml BSA, 20 mM Tris, pH=7.2). This mixture was homogenized to break open the cells and release the mitochondria and then centrifuged at 2000 g for 8 minutes to remove the larger membrane debris and the nuclei from the pellet. The supernatant was then recovered and centrifuged at 13,000 g for 11 minutes. The supernatant was discarded while the pellet containing a mitochondria-rich fraction was resuspended in 500 μl of respiration buffer at 4° C. (300 mM D-mannitol, 10 mM KCl, 10 mM KH2PO4, 5 mM MgCl2, pH=7.2). […]
# Added to the polarography chamber (Hansatech) were 30 μl of mitochondria solution (0.2 mg), 460 μL of respiration buffer, 5 μl of test compound solution (meaning MPP+ or furosemide pyridinium) (or its solubilizing solvent). […] The effect of the compound on respiratory control was evaluated (ratio of stage 3 to 4), which corresponds to the coupling of the respiratory chain, or in other words the ATP synthesis at complex V and the oxygen consumption due to complexes I to IV. The results are expressed as percentages of the value measured for mitochondria not treated with the test compound (but treated with the solubilizing solvent).
# caspase-8 = test: Caspase-8 activity (Ac-IETD-AFC cleavage) in SH-SY5Y cells; format: cell-based, human; details: 1 mM, 96 h
# Procedure: as §1
# caspase-3 = test: Caspase-3 activity (Ac-DEVD-AFC cleavage) in SH-SY5Y cells; format: cell-based, human; details: 1 mM, 96 h
# Procedure: as §1
# α-synuclein = test: Cellular accumulation of α-synuclein (Western blot) in SH-SY5Y cells; format: cell-based, human; details: 1 mM, 96 h incubation
# Procedure: Cells were incubated under the same conditions as above with furosemide pyridinium (1 mM, incubation: 96 h) and MPP+ (1 mM, incubation: 6 h, wait 24 h). After incubation, the cells were trypsinized, rinsed with PBS, counted, then harvested in 100 μl of buffer containing: 250 mM sucrose; 70 mM KCl; 137 mm NaCl; 4.3 mm NaH2PO4; 1.4 mm KH2PO4, pH 7.2; and […] digitonin. Incubation at 4° C. was then conducted for 5 minutes before centrifuging at 13,000 g for 5 minutes to separate the cytosolic and lysosomal fraction from the mitochondrial fraction. Deposits of cytosolic fraction in the Western blot were adjusted according to the number of cells. The protein samples were diluted in 4× Laemmli and were then heated for 3 minutes at 95° C. to denature. They were loaded into the wells of gel. In addition to the samples, a molecular weight marker (Fermentas) was deposited in the gel. […] The transfer was carried out on PVDF membrane. The transfer was done in transfer buffer (25 mM Tris, 192 mM glycine, 10% methanol) overnight at 4° C. and 30V or for 2 hours at 4° C. and 80V. […] Then the membranes were immunolabeled for 1.5 h at room temperature with a primary antibody diluted in 1×PBS/0.2% Tween/3% milk. […] The primary antibody used was anti-α-synuclein, 1:500 (visualized with an anti-rabbit secondary antibody, 1:10,000).
structure (smiles),measurement,setting,value
"NS(=O)(=O)c1cc(C(=O)[O-])c(-[n+]2cccc(O)c2)cc1Cl [furosemide pyridinium, 4-chloro-2-(3-hydroxypyridinium-1-yl)-5-sulfamoylbenzoate]",enzymatic activity of caspase-9 compared to untreated cells,caspase-9,170%
same,α-synuclein phosphorylated at serine 129 in the cortexes,[1]; cortex,no increase
same,α-synuclein phosphorylated at serine 129 in the striata,[1]; striatum,sharp increase
same,respiratory control of cerebral cortex mitochondria induced by malate/pyruvate,[2],diminished
same,change in caspase-8 activity,caspase-8,did not induce significant changes
same,activity of caspase-3 compared to untreated cells,caspase-3,179%
same,increase in the total amount of α-synuclein compared to control cells,α-synuclein,40%

# From patent US9744250B2, “Chemical model of a neurodegenerative disease, method for preparation and uses of same” (priority 2012, dated 2017)
